Experimental data as given in patent publication US20240181087A1, “COMPOSITION FOR CONTRAST IMAGING OF CANCER” (ASTELLAS PHARMA INC., priority 2021, published 2024).

Legend:
[1] = tested on: human tongue cancer cells CAL27; experiment: near-infrared fluorescence imaging after topical administration into tumor, human tongue cancer subcutaneous transplant model; assay type: in vivo; details: SCID mouse, 0.02 to 0.1 mL of 1 mg/mL, immediately after and 50 minutes after administration
Description: (§1) A human cancer cell transplant model mouse was created as follows: • (Head and neck/tongue cancer) To immunodeficient SCID mice (weight: 17 g to 23 g), about 10^6 human tongue cancer cells CAL27 (purchased from American Type Culture Collection: ATCC) were subcutaneously administered, and the resultant mice were grown for 49 days to create tumor models. • (Brain cancer/neuroblastoma) To immunodeficient SCID mice (weight: 17 g to 23 g), about 10^6 human neuroblastoma cells SH-SY5Y (purchased from ATCC) were subcutaneously administered, and the resultant mice were grown for 90 days to create tumor models. • (Brain cancer/glioblastoma) To immunodeficient SCID mice (weight: 17 g to 23 g), about 10^6 human glioblastoma cells U-251MG (obtained from European Collection of Authenticated Cell Cultures) were subcutaneously administered, and the resultant mice were grown for 90 days to create tumor models.
(§2) Subsequently, to the tumor of each of the mouse models, 0.02 to 0.1 mL of a saline containing the compound III (concentration of the compound III: 1 mg/mL) was topically administered, and fluorescence imaging was conducted transdermally with a near-infrared fluorescence camera (Fluobeam, manufactured by Fluoptics) (excitation wavelength: 780 nm, detection wavelength: 800 nm or more).

[2] = tested on: human neuroblastoma cells SH-SY5Y; experiment: near-infrared fluorescence imaging after topical administration into tumor, human neuroblastoma subcutaneous transplant model; assay type: in vivo; details: SCID mouse, 0.02 to 0.1 mL of 1 mg/mL, 1 hour after administration
Description: as §1, §2

B16F1 (skin cancer cell) = experiment: near-infrared fluorescence imaging after administration into tumor, B16F1 skin cancer model; assay type: in vivo, mouse; details: 0.02 to 0.05 mL of 1 mg/mL saline, transdermal imaging
From the text: (§3) A syngeneic tumor transplanted mouse model was created as follows referring to “Gan-Shikkan Model no Sakusei to Riyo (Cancer-Creation and Use of Disease Model)” (Takuro Nakamura, LIC, 2012). • (Breast Cancer) A tumor model was created by breeding a normal Balb/c mouse (weight: about 20 g to 30 g) for 14 days with mouse tumor cell 4T1 subcutaneously administered thereto. • (Colorectal Cancer) A tumor model was created by breeding a normal Balb/c mouse (weight: about 20 g to 30 g) for 14 days with CT26 (colorectal cancer cell) subcutaneously administered thereto. • (Skin Cancer) A tumor model was created by breeding a C57BL/6 mouse (weight: about 15 g to 20 g) for 14 days with B16F1 (skin cancer cell) subcutaneously administered thereto.
(§4) Subsequently, to the tumor of each of the model mice, 0.02 to 0.05 mL of a saline containing the compound III or ICG (concentration of the compound III or ICG: 1 mg/mL) was administered, and fluorescence imaging was performed transdermally with a near-infrared fluorescence camera (Fluobeam, manufactured by Fluoptics, http://www.solve-net.com/info/wp-content/uploads/downloads/2013/12/Fluobeam.pdf) (excitation wavelength: 780 nm, detection wavelength: 800 nm or more).

[3] = tested on: Human esophageal cancer cell KYSE850; experiment: near-infrared fluorescence observation, human esophageal cancer subcutaneous transplant mouse model; assay type: in vivo; details: nude mouse, tail vein 120 nmol/kg, 30 seconds after administration
From the text: Human esophageal cancer cell KYSE850 was subcutaneously transplanted into the neck of a nude mouse (BALB/cSlc-nu, SPF, male, 5 weeks old), and the resultant mouse was bred for 18 days to create a mouse having esophageal cancer grown therein. The human esophageal cancer cell KYSE850 was purchased from JCRB cell bank of National Institutes of Biomedical Innovation, Health and Nutrition (Registration Number: JCRB1422, establisher: Graduate School of Pharmaceutical Sciences, Kyoto University, Department of Nanobio Drug Discovery, Yutaka Shimada).
The near-infrared fluorescence from a cancer tissue (circled site) was strong, and that from a normal tissue was weak (FIG. 25). It is noted that fluorescence in an elliptical frame corresponds to near-infrared fluorescence from the right and left kidneys.

[4] = tested on: Human stomach cancer cell MKN45-Luc; experiment: near-infrared fluorescence observation of abdominal cavity, peritoneal dissemination mouse model; assay type: in vivo; details: tail vein 40 nmol/kg, 10 minutes
From the text: Human stomach cancer cell MKN45-Luc (5×10^6 cells, purchased from JCRB cell bank of National Institutes of Biomedical Innovation, Health and Nutrition) was intraperitoneally injected into a nude mouse (BALB/cSlc-nu, SPF, male, weight: about 20 g), and the resultant mouse was bred for 15 days to create a nude mouse having peritoneal dissemination. […] The near-infrared fluorescence was not emitted from the abdominal cavity of the normal mouse (FIG. 22).

mouse tumor cell 4T1 = experiment: near-infrared fluorescence imaging after administration into tumor, 4T1 breast cancer model; assay type: in vivo
From the text: as §3, §4

[5] = tested on: renal epithelial cell carcinoma; experiment: near-infrared fluorescence imaging of kidney with tumor/pretumor induced with ferric nitrilotriacetate; assay type: in vivo, rat
Description: A kidney cancer […] model was created based on a method reported by Okada et al., (Okada et al., Jpn. Arch. Int. Med., 1982, 29, 485). Specifically, rats (280 g to 320 g) were bred after continuously intraperitoneally administering ferric nitrilotriacetate to the rats for 6 months, and thus, renal epithelial cell carcinoma was induced therein.
Each of the rats was anesthetized by intraperitoneally administering pentobarbital sodium salt, a saline containing the compound III was administered to the tail vein (dose of the compound: 0.75 mg/kg of the rat), and 30 minutes, 3 hours, or 24 hours after the administration, the rat was subjected to laparotomy to perform near-infrared fluorescence imaging of the kidney with a near-infrared fluorescence imaging device (PDE, manufactured by Hamamatsu Photonics K.K.) (FIG. 11). Besides, the kidney having been subjected to the near-infrared fluorescence imaging was excised from the body, and the cross section was subjected to near-infrared fluorescence imaging (FIG. 12). Three rats each were used at each of the above-described timings after the administration, and nine rats were used in total.
Besides, a specimen for microscopic observation was created through ethanol immobilization, section creation, hematoxylin/eosin staining for performing observation in bright field and near-infrared fluorescence (FIG. 13). […] Thus, tumor embedded in surrounding tissues could be detected.

[6] = MKN45-Luc peritoneal dissemination nude mouse
[7] = ferric nitrilotriacetate rat, tail vein 0.75 mg/kg, excised kidney

## COC1=C(/C=C/C2=[N+](CCC(=O)NCCCO[C@H]3[C@H]4O[C@H]5[C@H](O)[C@@H](O)[C@@H](O[C@H]6[C@H](O)[C@@H](O)[C@@H](O[C@H]7[C@H](O)[C@@H](O)[C@@H](O[C@H]8[C@H](O)[C@@H](O)[C@@H](O[C@H]9[C@H](O)[C@@H](O)[C@@H](O[C@H]%10[C@H](O)[C@@H](O)[C@@H](O[C@@H]([C@@H]3O)[C@@H](CO)O4)O[C@@H]%10CO)O[C@@H]9CO)O[C@@H]8CO)O[C@@H]7CO)O[C@@H]6CO)O[C@@H]5CO)c3ccc4ccccc4c3C2(C)C)CCC/C1=C\C=C1\N(CCC(=O)NCCCO[C@H]2[C@H]3O[C@H]4[C@H](O)[C@@H](O)[C@@H](O[C@H]5[C@H](O)[C@@H](O)[C@@H](O[C@H]6[C@H](O)[C@@H](O)[C@@H](O[C@H]7[C@H](O)[C@@H](O)[C@@H](O[C@H]8[C@H](O)[C@@H](O)[C@@H](O[C@H]9[C@H](O)[C@@H](O)[C@@H](O[C@@H]([C@@H]2O)[C@@H](CO)O3)O[C@@H]9CO)O[C@@H]8CO)O[C@@H]7CO)O[C@@H]6CO)O[C@@H]5CO)O[C@@H]4CO)c2ccc3ccccc3c2C1(C)C.[Cl-] [compound III, 3-(3-{[3-(cyclomaltoheptaose-21-O-yl)propyl]amino}-3-oxopropyl)-2-{(1E)-2-[(3E)-3-{(2E)-2-[3-(3-{[3-(cyclomaltoheptaose-21-O-yl)propyl]amino}-3-oxopropyl)-1,1-dimethyl-1,3-dihydro-2H-benzo[e]indol-2-ylidene]ethylidene}-2-methoxycyclohexa-1-en-1-yl]ethene-1-yl}-1,1-dimethyl-1H-benzo[e]indol-3-ium chloride]
[1]
  retention inside the tumor (fluorescence imaging): retained inside the tumor
[2]
  retention inside the tumor (fluorescence imaging): retained inside the tumor
B16F1 (skin cancer cell)
  retention in tumor (fluorescence imaging): retained in the tumor
[3]
  near-infrared fluorescence from esophageal cancer tissue: strong
  near-infrared fluorescence from normal tissue: weak
[4]; [6]
  near-infrared fluorescence of dissemination present in the entire abdominal cavity: emitted the near-infrared fluorescence
  near-infrared fluorescence of visually recognizable cancer tissue (nearly necrotic): did not emit the near-infrared fluorescence
[4]; normal nude mouse
  near-infrared fluorescence from abdominal cavity of normal mouse: not emitted
Mouse tumor cell 4T1; 4T1 breast cancer model, 0.02 to 0.05 mL of 1 mg/mL saline, transdermal imaging
  retention in tumor (fluorescence imaging): retained in the tumor
Mouse tumor cell 4T1; 4T1 tumor, 1 mg/mL saline, fluorescence imaging, incl. during tumor excision operation
  drawing of tumor outline / exudation to surrounding tissues: did not exude to surrounding tissues but the outline of the tumor was drawn
[5]; ferric nitrilotriacetate rat, near-infrared fluorescence microscope, section 3 hours after administration
  near-infrared fluorescence micro image of kidney tissue section: strong near-infrared fluorescence was found locally in a non-neoplastic degeneration site, a pre-neoplastic degeneration site, and a neoplastic degeneration site
[5]; ferric nitrilotriacetate rat, tail vein 0.75 mg/kg, 30 minutes, 3 hours or 24 hours after administration
  near-infrared fluorescence macro image of the surface of the kidney having tumor and pretumor: strong fluorescence was locally found in a dotted manner
[5]; [7]
  near-infrared fluorescence image of kidney cross section: dotted fluorescence in renal medulla: not observed
  near-infrared fluorescence image of kidney cross section: renal cortex: a site exhibiting strong fluorescence in a dotted manner was observed
[5]; normal rat, tail vein 0.75 mg/kg
  aspect of dotted strong fluorescence in normal kidney: not observed
